Measurements: PubChem BioAssay AID256 (DTP/NCI, 2004)
Values joined by “and” are separate entries in the source; they are usually repeats but may differ in a detail not shown here. Identical values can stand only once. Inconclusive results and toxic doses are left out.

System: CD2F1 mice, L1210 leukemia ip, survival T/C
Assay: NCI In Vivo Anticancer Drug Screen. Data for tumor model L1210 Leukemia (intraperitoneal) in CD2F1 (CDF1) mice
Settings: higher = longer survival
Method in brief: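 Implant tumor; dose compound or vehicle; measure endpoint in both groups; report treated divided by control.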

SMILES: CC(C)C1(NC(=O)C2C=C3c4cccc5[nH]cc(c45)CC3N(C)C2)OC2(O)C3CCCN3C(=O)C(Cc3ccccc3)N2C1=O (stereo not drawn)
- T/C (endpoint: mean survival time, dose: 50.0 mg/kg/injection, schedule: Q04DX003 (ip), vehicle: saline with Tween-80): 96 % of control
- T/C (endpoint: mean survival time, dose: 100.0 mg/kg/injection, schedule: Q04DX003 (ip), vehicle: saline with Tween-80): 105 % of control
- T/C (endpoint: mean survival time, dose: 200.0 mg/kg/injection, schedule: Q04DX003 (ip), vehicle: saline with Tween-80): 100 % of control

SMILES: O=C(O)C(O)C(O)C(O)C(O)CO.O=C(O)C(O)C(O)C(O)C(O)CO.[NH-]C1CCCCC1[NH-].[Pt+2] (stereo not drawn)
- T/C (endpoint: mean survival time, dose: 3.13 mg/kg/injection, schedule: Q04DX003 (ip), vehicle: other): 123 % of control
- T/C (endpoint: mean survival time, dose: 6.25 mg/kg/injection, schedule: Q04DX003 (ip), vehicle: saline): 119 % of control
- T/C (endpoint: mean survival time, dose: 12.5 mg/kg/injection, schedule: Q04DX003 (ip), vehicle: saline): 166 % of control
- T/C (endpoint: mean survival time, dose: 25.0 mg/kg/injection, schedule: Q04DX003 (ip), vehicle: other): 162 % of control
- T/C (endpoint: mean survival time, dose: 25.0 mg/kg/injection, schedule: Q04DX003 (ip), vehicle: saline): 304 % of control
- T/C (endpoint: mean survival time, dose: 50.0 mg/kg/injection, schedule: Q04DX003 (ip), vehicle: other): 231 % of control
- T/C (endpoint: mean survival time, dose: 50.0 mg/kg/injection, schedule: Q04DX003 (ip), vehicle: saline): 281 % of control and 225 % of control
- T/C (endpoint: mean survival time, dose: 100.0 mg/kg/injection, schedule: Q04DX003 (ip), vehicle: saline): 306 % of control and 280 % of control

SMILES: Cn1c(=O)c2c(ncn2C)n(C)c1=O
- T/C (endpoint: mean survival time, dose: 128.0 mg/kg/injection, schedule: Q11HX001 (sc), vehicle: water): 94 % of control and 103 % of control
- T/C (endpoint: mean survival time, dose: 160.0 mg/kg/injection, schedule: Q11HX001 (sc), vehicle: water): 95 % of control and 98 % of control
- T/C (endpoint: mean survival time, dose: 200.0 mg/kg/injection, schedule: Q11HX001 (sc), vehicle: water): 96 % of control and 98 % of control
- T/C (endpoint: mean survival time, dose: 250.0 mg/kg/injection, schedule: Q11HX001 (sc), vehicle: water): 96 % of control and 98 % of control
- T/C (endpoint: median survival time, dose: 150.0 mg/kg/injection, schedule: Q01DX001 (ip), vehicle: water): 103 % of control
- T/C (endpoint: median survival time, dose: 150.0 mg/kg/injection, schedule: Q01DX001 (sc), vehicle: water): 102 % of control and 109 % of control
- T/C (endpoint: median survival time, dose: 200.0 mg/kg/injection, schedule: Q01DX001 (ip), vehicle: water): 104 % of control
- T/C (endpoint: median survival time, dose: 200.0 mg/kg/injection, schedule: Q01DX001 (sc), vehicle: water): 104 % of control and 108 % of control
- T/C (endpoint: median survival time, dose: 250.0 mg/kg/injection, schedule: Q01DX001 (sc), vehicle: water): 95 % of control and 107 % of control

SMILES: CCN(CC)CCOC(=O)c1ccccc1Nc1cccc(C)c1
- T/C (endpoint: mean survival time, dose: 25.0 mg/kg/injection, schedule: Q01DX009 (ip), vehicle: saline): 89 % of control
- T/C (endpoint: mean survival time, dose: 50.0 mg/kg/injection, schedule: Q01DX009 (ip), vehicle: saline): 101 % of control
- T/C (endpoint: mean survival time, dose: 100.0 mg/kg/injection, schedule: Q01DX009 (ip), vehicle: saline): 97 % of control

SMILES: Cc1ccc2cc(O)ccc2c1
- T/C (endpoint: mean survival time, dose: 50.0 mg/kg/injection, schedule: Q01DX009 (ip), vehicle: saline with Tween-80): 97 % of control
- T/C (endpoint: mean survival time, dose: 100.0 mg/kg/injection, schedule: Q01DX009 (ip), vehicle: saline with Tween-80): 98 % of control

SMILES: O=S(=O)(c1ccc(Cl)cc1)N(Cl)Cl
- T/C (endpoint: mean survival time, dose: 100.0 mg/kg/injection, schedule: Q01DX001 (ip), vehicle: saline with Tween-80): 103 % of control
- T/C (endpoint: mean survival time, dose: 200.0 mg/kg/injection, schedule: Q01DX001 (ip), vehicle: saline with Tween-80): 101 % of control

SMILES: CCOC(=O)CNC(=O)CCCCSc1ncnc2nc[nH]c12
- T/C (endpoint: mean survival time, dose: 20.0 mg/kg/injection, schedule: Q01DX001 (ip), vehicle: saline with Tween-80): 95 % of control
- T/C (endpoint: mean survival time, dose: 20.0 mg/kg/injection, schedule: Q01DX009 (ip), vehicle: saline with Tween-80): 98 % of control
- T/C (endpoint: mean survival time, dose: 20.0 mg/kg/injection, schedule: Q04DX003 (ip), vehicle: saline with Tween-80): 102 % of control
- T/C (endpoint: mean survival time, dose: 40.0 mg/kg/injection, schedule: Q01DX001 (ip), vehicle: saline with Tween-80): 97 % of control
- T/C (endpoint: mean survival time, dose: 40.0 mg/kg/injection, schedule: Q01DX009 (ip), vehicle: saline with Tween-80): 94 % of control
- T/C (endpoint: mean survival time, dose: 40.0 mg/kg/injection, schedule: Q04DX003 (ip), vehicle: saline with Tween-80): 95 % of control
- T/C (endpoint: mean survival time, dose: 80.0 mg/kg/injection, schedule: Q01DX009 (ip), vehicle: saline with Tween-80): 96 % of control
- T/C (endpoint: mean survival time, dose: 80.0 mg/kg/injection, schedule: Q04DX003 (ip), vehicle: saline with Tween-80): 95 % of control
- T/C (endpoint: mean survival time, dose: 160.0 mg/kg/injection, schedule: Q01DX001 (ip), vehicle: saline with Tween-80): 90 % of control
- T/C (endpoint: mean survival time, dose: 160.0 mg/kg/injection, schedule: Q01DX009 (ip), vehicle: saline with Tween-80): 93 % of control
- T/C (endpoint: mean survival time, dose: 160.0 mg/kg/injection, schedule: Q04DX003 (ip), vehicle: saline with Tween-80): 95 % of control
- T/C (endpoint: mean survival time, dose: 320.0 mg/kg/injection, schedule: Q01DX001 (ip), vehicle: saline with Tween-80): 95 % of control
- T/C (endpoint: mean survival time, dose: 320.0 mg/kg/injection, schedule: Q01DX009 (ip), vehicle: saline with Tween-80): 96 % of control
- T/C (endpoint: mean survival time, dose: 320.0 mg/kg/injection, schedule: Q04DX003 (ip), vehicle: saline with Tween-80): 93 % of control
- T/C (endpoint: mean survival time, dose: 640.0 mg/kg/injection, schedule: Q01DX001 (ip), vehicle: saline with Tween-80): 97 % of control
- T/C (endpoint: mean survival time, dose: 640.0 mg/kg/injection, schedule: Q04DX003 (ip), vehicle: saline with Tween-80): 100 % of control
